Measured values: the METLIN SMRT retention time set (Domingo-Almenara et al. 2019)

Assay: gradient 5% acetonitrile 3 min, to 50% in 2 min, to 85% in 15 min, held 3 min, 100 µL/min
Settings: column: Zorbax Extend-C18 2.1 x 50 mm; eluents: water / acetonitrile, 0.1% formic acid
How it was run: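 The mobile phases were water and acetonitrile, each with 0.1% formic acid, pumped at 100 μL/min through a Zorbax Extend-C18 column (2.1 × 50 mm, 1.8 μm). Pure standards were injected as mixtures of ~100 molecules and detected by a quadrupole time-of-flight mass spectrometer in positive and negative ionization mode. Retention time came from computationally picked adduct peaks, each inspected by hand.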

| RP-LC retention time [s] | Compound |
| --- | --- |
| 821 | Cc1ccc(NS(=O)(=O)c2cc3c(=O)n(C)ncn3c2)cc1 |
| 863 | Cc1ccc(Nc2ncccc2S(N)(=O)=O)cc1F |
| 801 | CN(C)C(=O)c1ccc2c(c1)n(Cc1cccc(F)c1)c(=O)c1ccnn12 |
| 642 | Cc1ccc(S(=O)(=O)NCC(c2ccccc2)N(C)C)cc1 (stereo not given) |
| 955 | CCC(C)NS(=O)(=O)c1cc(-c2nnc(-c3ccccc3)o2)ccc1OC (stereo not given) |
| 861 | Cc1ccc(C(=O)N2CCCC(c3nnc(-c4ccccc4)o3)C2)s1 (stereo not given) |
| 940 | COc1ccc(NC(=O)N2CCCC2c2nc(-c3ccc(F)cc3F)no2)c(OC)c1 (stereo not given) |
| 889 | CN(CCc1noc(COc2ccccc2F)n1)C(=O)c1ccccc1F |
| 1150 | O=C1C(=C2C=C(c3ccccc3)OC3=C2CCCC3)C(=O)c2ccccc21 |
| 914 | CCOc1ccc(CNC(=O)CN2C(=O)CSc3cccn3-c3ccccc32)cc1 |
| 902 | O=S(=O)(NCc1ccco1)c1cc(-c2nnc(-c3ccccc3)o2)ccc1F |
| 704 | O=C(CCc1c[nH]c2ccccc12)Nc1ccc(-c2nnc3n2CCCC3)cc1 |
| 890 | Cc1oc(-c2[nH]ncc2C(=O)N(C)C)cc1S(=O)(=O)Nc1ccc(F)c(F)c1 |
| 1040 | COc1ccccc1-c1nn2c(-c3ccc4ccccc4n3)nnc2s1 |
| 782 | Cc1nn(CC(=O)NCc2ccco2)c(=O)c2nc(-c3ccccc3)sc12 |
| 620 | CCOc1ccc(CNC(=O)c2cc(NC(C)=O)cc3nc(C)ccc23)cc1 |
| 870 | O=C(Nc1cc(-c2ccccn2)no1)c1cccc(Cl)c1 |
| 635 | O=C(Cc1cccs1)NCC1CCN(C(=O)Oc2ccccc2)CC1 |
| 740 | O=C1NCCCn2cc(S(=O)(=O)NCc3ccc(OC(F)(F)F)cc3)cc21 |
| 875 | COC(=O)c1ccccc1Nc1c(-c2ccc(C)cc2)nc2cnccn12 |
| 898 | COc1ccc2cc(C(=O)Nc3ccccc3)[nH]c2c1 |
| 961 | CCOc1ccccc1NC(=O)c1cnc2c(c1)c(=O)n(C)c(=O)n2-c1ccc(OC)cc1 |

| RP-LC retention time [s] | Compound |
| --- | --- |
| 840 | O=C(NC1CC1)c1cccn1Cc1noc(-c2ccccc2)n1 |
| 830 | Fc1ccc(CNc2cc(-n3cccn3)ncn2)cc1 |
| 919 | Cc1ccc(CNC(=O)Cn2c(C)cc(-c3nnc(-c4ccc(F)cc4)o3)c2C)o1 |
| 926 | Cc1ccc(NC(=O)N(C)CCc2noc(COc3ccc(F)cc3)n2)cc1 |
| 1020 | Cc1cc(C)nc(SCC(=O)Nc2nc(-c3ccccc3)cs2)n1 |
| 936 | Cc1ccc(CNC(=O)C2(c3ccc(NC(=O)C(C)C)cc3)CCC2)cc1C |
| 979 | CCOc1cccc(-c2noc(Cn3cnc4c(nnn4-c4ccccc4OC)c3=O)n2)c1 |
| 758 | COc1ccc(-c2cc3n(n2)CCCN(C(=O)c2ccco2)C3)cc1 |
| 1270 | CC(C)c1ccc(S(=O)(=O)N2CCCC2c2nc(-c3cccc(F)c3)no2)cc1 (stereo not given) |
| 1000 | O=C(Cn1c(=O)cc(-c2nc(-c3ccccc3)no2)c2ccccc21)N1CCCC1 |
| 758 | CCn1ccc2c(cc(C(=O)Nc3ccccc3Br)n2C)c1=O |
| 689 | CCn1cc(-c2ccncc2)cc1C(=O)NCc1ccc(SC)cc1 |
| 936 | COc1cc(-c2nnc(-c3ccc(C)c(S(=O)(=O)N(C)C)c3)o2)cc(OC)c1OC |
| 562 | CN(C)C(CNC(=O)Nc1cccs1)c1ccccc1Cl (stereo not given) |
| 1150 | CCOCCCn1c(SCc2nc(-c3ccc(F)cc3)no2)nc2ccccc2c1=O |
| 704 | COCCNC(=O)N1c2ccccc2NC2=C(C(=O)CC(C)(C)C2)C1c1ccc(OC)cc1 (stereo not given) |
| 914 | O=C1C(NS(=O)(=O)Cc2cc(F)cc(F)c2)CCN1c1ccccc1 (stereo not given) |
| 612 | O=C(Nc1ccccc1)N1CCN(Cc2nc(-c3ccccc3)cs2)CC1 |
| 819 | CCCCN(CC)c1nc(-c2ccccc2F)nc2ccccc12 |
| 887 | O=C(c1cccs1)N1CCc2cc(-c3ccno3)ccc21 |
| 930 | O=S(=O)(Nc1cc(F)cc(F)c1)c1ccc(-c2nnc(C3CCC3)o2)o1 |

Further lines, the compound ahead of its results:

| Compound | RP-LC retention time [s] |
| --- | --- |
| COc1ccc(CNC(=O)CN2C(=O)NC3(CCC(C(C)(C)C)CC3)C2=O)cc1OC (stereo not given) | 863 |
| CCCN1CCN(C(=O)CN2C(=O)C3CCCCN3c3ccc(C(=O)N(C)C)cc32)CC1 (stereo not given) | 602 |
| Cc1nn(-c2ccc(N3CCOCC3)nn2)c(C)c1CCC(=O)NCCC(C)C | 672 |
| CCNC(=O)C1CCCN(S(=O)(=O)c2c[nH]c(C(=O)N3CCCCCC3)c2)C1 (stereo not given) | 699 |
| O=C(Cc1cccs1)Nc1nnc(SCc2ccc([N+](=O)[O-])cc2)s1 | 861 |
| Cc1ccc(CN2CCC3(CC2)CC(O)(c2ccccn2)CCO3)nc1 (stereo not given) | 539 |
| O=C(N[C@H]1C[C@@H]2C[C@H]1N(C(=O)CSc1ccccc1)C2)c1ccccc1 | 786 |
| O=C1COc2ccc(-c3csc(NC(=O)C4CCCCC4)n3)cc2N1 | 884 |
| Cn1ncc(N2CCCC(C(=O)N3CCc4ccccc4C3)C2)cc1=O (stereo not given) | 732 |
| O=C(NCc1cccs1)C1CCN(C(=O)c2ncn3c2COC(c2ccccc2)C3)CC1 (stereo not given) | 725 |
| Cn1c(N2CCN(C(=O)c3ccccc3Br)CC2)cc(=O)n(C)c1=O | 668 |
| CCC(C(=O)Nc1ccc(C(C)=O)cc1)n1cnc2nc3c(cc2c1=O)CCCC3 (stereo not given) | 748 |
| CCc1nc(-c2csc(S(=O)(=O)N3CCCC(C(=O)Nc4ccc(F)c(F)c4)C3)c2)no1 (stereo not given) | 1090 |
| CC(C)C(=O)Nc1ccc(-n2cnc(C(=O)NC3CCCCC3)c2)nc1 | 765 |
| Cc1cccc(CC(=O)N2C[C@@H]3C[C@H]2C[C@@H]3NS(C)(=O)=O)c1 | 673 |
| O=C(Nc1cccnc1)C1CCCN(S(=O)(=O)c2cc(-c3noc(C4CCC4)n3)cs2)C1 (stereo not given) | 893 |
| CN(CC1CCOCC1)S(=O)(=O)c1ccccc1F | 804 |
| O=C(c1ccc2c(c1)CCN2C(=O)C1CC1)N1CCN(c2ccccc2)CC1 | 829 |
| O=C(Nc1ccc(OC2CCNCC2)nc1)C1(c2ccccc2)CC1 | 646 |
| Cc1cc(=O)n(CC(=O)Nc2cccc(F)c2)c(N2CCOCC2)n1 | 666 |
| CCn1cc(C)c(C(=O)O)c1CC(=O)Nc1cc(C)ccc1C | 866 |
| COc1ccc(NC(=O)C2CCCN(C(=O)C3Sc4ccccc4NC3=O)C2)cc1 (stereo not given) | 750 |
| CCCC(=O)N1CCN(c2nc3ccccc3nc2C(F)(F)F)CC1 | 1020 |
| CCOCCCNC(=O)CN1C(=O)CCCc2ccccc21 | 681 |

| Compound | RP-LC retention time [s] |
| --- | --- |
| CCOC(=O)N1CCN(C(=O)CN2CCC(COCc3ccccc3)CC2)CC1 | 571 |
| CCOC(=O)c1cccc(NC(=O)NC2CCN(c3ccc(F)cc3)C2=O)c1 (stereo not given) | 824 |
| O=C(CN1C(=O)c2ccccc2C1=O)Oc1ccc2nc(N3CCCCC3)sc2c1 | 923 |
| Cc1c(Cc2ccc3c(c2)OCO3)sc(NC(=O)c2ccc([N+](=O)[O-])s2)c1C#N | 1070 |
| O=C1NCCCn2cc(S(=O)(=O)Nc3ccc(F)c(F)c3)cc21 | 676 |
| Cc1cccc(Sc2nccnc2N2CCC(C(=O)NCc3cccc(Cl)c3)CC2)c1 | 1150 |
| CC(C)(C)NC(=O)N1CCC(CNC(=O)C(=O)Nc2ccccc2Cl)CC1 | 836 |
| O=C1NCCCCCCN(C(=O)c2ccc3ccccc3n2)[C@H]2C[C@H](C(=O)N3CCc4ccccc4C3)C[C@@H]12 | 896 |
| O=C(NCc1cccs1)c1ccc2c(c1)ncn2CCN1CCCC1 | 577 |
| O=C(C1CCC(=O)N1S(=O)(=O)c1ccccc1)N1CCCCC1 (stereo not given) | 757 |
| Fc1ccc(Nc2nc(N3CCOCC3)nc3[nH]ncc23)cc1 | 601 |
| Cc1ccc(C(=O)N2CCCC(COc3ccc(C(=O)NC4CC4)cc3)C2)cc1F (stereo not given) | 849 |
| O=C(c1cccc(F)c1)N1CCC(n2c(-c3ccoc3)nc3cccnc32)C1 (stereo not given) | 735 |
| Cc1cc(F)ccc1NS(=O)(=O)c1cc2c(s1)CCN(C(=O)C1CC1)C2 | 839 |
| O=C(Nc1ccc2c(c1)OCCO2)N1CCc2nn(CC3CC3)c(=O)n2CC1 | 703 |
| O=C(NC1CC1)C1CCN(c2nc(-c3ccc(Cl)cc3)no2)CC1 | 859 |
| COCCNC(=O)C1CCN(c2cncnc2N2CCCC2)CC1 | 580 |
| O=[N+]([O-])c1ccc2nc(N3CCNCC3)ccc2c1 | 641 |
| O=C(CNC(=O)c1ccccc1)NCCSc1ccc(C(=O)Nc2ccccc2)cn1 | 728 |
| O=C(NCc1ccc2c(c1)OCO2)C1CCN(C(=O)c2cc(-c3ccncc3)n[nH]2)CC1 | 579 |
| CCN(CC)S(=O)(=O)N1CCCC(C(=O)NCCc2ccc(Cl)cc2)C1 (stereo not given) | 945 |
| N#Cc1ccccc1CN1CCC2(CCC2O)CC1 (stereo not given) | 565 |
| CC(=O)N(Cc1ccc(F)cc1)Cc1ccc2c(c1)CN(C(=O)C(C)C)CCO2 | 804 |
